From patent US10450347B2, “Immunomodulators” (BRISTOL-MYERS SQUIBB COMPANY, priority 2015, dated 2019)
Starred links: 1 amine or outer side, 2 acyl side, 3 side chain; linkers in the order of their positions; H or OH if unused. Positions of bridges follow the written chain, without caps; N, C: chain ends. Non-standard residues stand in square brackets, D forms with d. Residues, ends and D or L forms follow the SMILES beside them. ξ: configuration not given here. Tyrψ(CN4)Ala = C[C@@H](C(=O)[*:2])n1nnnc1[C@H](Cc1ccc(O)cc1)N[*:1]; X1 = CCCC[C@@H](C(=O)[*:2])n1nnnc1[C@H](Cc1c[nH]c2ccccc12)N[*:1]; X5 = C[C@@H](C(=O)[*:2])n1nnnc1[C@H](Cc1ccccc1)N[*:1]; Morpholine(3S-CO) = O=C(O)[C@@H]1COCCN1; Bta = N[C@@H](Cc1csc2ccccc12)C(=O)O; Hyp = O=C(O)[C@@H]1C[C@@H](O)CN1; NMeNle = CCCC[C@H](NC)C(=O)O; NMeA = CN[C@@H](C)C(=O)O; Orn = NCCC[C@H](N)C(=O)O; Dab = NCC[C@H](N)C(=O)O; Dap = NC[C@H](N)C(=O)O; ξC = NC(CS)C(=O)O; Sar = CNCC(=O)O

target: T1, PD-1-Ig/PD-L1-His (Homo sapiens, UniProt Q9NZQ7); assay: PD-1/PD-L1 Homogenous Time-Resolved Fluorescence (HTRF) binding assay; details: inhibition of PD-1-Ig binding to PD-L1-TVMV-His; numeric values
T1 construct: [hPD-L1(19-239)-tobacco vein mottling virus protease cleavage site (TVMV)-His]; made in house; host or cells: HEK293T cells
T1 sequence (Q9NZQ7 with tags, fused parts or gaps): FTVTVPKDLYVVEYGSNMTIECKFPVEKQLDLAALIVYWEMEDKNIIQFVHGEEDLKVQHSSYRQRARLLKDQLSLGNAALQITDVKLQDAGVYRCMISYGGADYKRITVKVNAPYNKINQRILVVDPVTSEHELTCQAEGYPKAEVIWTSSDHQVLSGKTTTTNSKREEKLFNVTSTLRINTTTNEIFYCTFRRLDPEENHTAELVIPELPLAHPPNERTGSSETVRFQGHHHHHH
Description: The ability of the macrocyclic peptides of the present disclosure to bind to PD-L1 was investigated using a PD-1/PD-L1 Homogenous Time-Resolved Fluorescence (HTRF) binding assay.
Homogenous Time-Resolved Fluorescence (HTRF) Assays of Binding of Soluble PD-1 to Soluble PD-L1. Soluble PD-1 and soluble PD-L1 refers to proteins with carboxyl-end truncations that remove the transmembrane-spanning regions and are fused to heterologous sequences, specifically the Fc portion of the human immunoglobuling G sequence (Ig) or the hexahistidine epitope tag (SEQ ID NO: 3) (His). All binding studies were performed in an HTRF assay buffer consisting of dPBS supplemented with 0.1% (w/v) bovine serum albumin and 0.05% (v/v) Tween-20. For the PD-1-Ig/PD-L1-His binding assay, inhibitors were pre-incubated with PD-L1-His (10 nM final) for 15 m in 4 μl of assay buffer, followed by addition of PD-1-Ig (20 nM final) in 1 μl of assay buffer and further incubation for 15 m. PD-L1 fusion proteins from either human, cynomologous macaques, mouse, or other species were used. HTRF detection was achieved using europium crypate-labeled anti-Ig monoclonal antibody (1 nM final) and allophycocyanin (APC) labeled anti-His monoclonal antibody (20 nM final). Antibodies were diluted in HTRF detection buffer and 5 μl was dispensed on top of binding reaction. The reaction was allowed to equilibrate for 30 minutes and signal (665 nm/620 nm ratio) was obtained using an EnVision fluorometer. Additional binding assays were established between PD-1-Ig/PD-L2-His (20 and 5 nM, respectively), CD80-His/PD-L1-Ig (100 and 10 nM, respectively) and CD80-His/CTLA4-Ig (10 and 5 nM, respectively). Binding/competition studies between biotinylated Compound No. 71 and human PD-L1-His were performed as follows. Macrocyclic peptide inhibitors were pre-incubated with PD-L1-His (10 nM final) for 60 minutes in 4 μl of assay buffer followed by addition of biotinylated Compound No. 71 (0.5 nM final) in 1 μl of assay buffer. Binding was allowed to equilibrate for 30 minutes followed by addition of europium crypated labeled Streptavidin (2.5 pM final) and APC-labeled anti-His (20 nM final) in 5 μl of HTRF buffer. The reaction was allowed to equilibrate for 30 m and signal (665 nm/620 nm ratio) was obtained using an EnVision fluorometer.
Recombinant Proteins. Carboxyl-truncated human PD-1 (amino acids 25-167) with a C-terminal human Ig epitope tag [hPD-1 (25-167)-3S-IG] and human PD-L1 (amino acids 18-239) with a C-terminal His epitope tag [hPD-L1(19-239)-tobacco vein mottling virus protease cleavage site (TVMV)-His] were expressed in HEK293T cells and purified sequentially by recombinant Protein A affinity chromatography and size exclusion chromatography. Human PD-L2-His (Sino Biologicals), CD80-His (Sino Biologicals), CTLA4-Ig (RnD Systems) were all obtained through commercial sources.

Structure (SMILES)	IC50
CCCC[C@H]1C(=O)N(C)[C@@H](CCCC)C(=O)N[C@@H](CCCNC(=N)N)C(=O)N[C@H](C(=O)NCC(N)=O)CSCC(=O)N[C@@H](Cc2ccc(O)cc2)c2nnnn2[C@@H](C)C(=O)N[C@@H](CC(N)=O)C(=O)N2CCC[C@H]2C(=O)N[C@@H](Cc2cnc[nH]2)C(=O)N[C@@H](CC(C)C)C(=O)N(C)CC(=O)N[C@@H](Cc2c[nH]c3ccccc23)C(=O)N[C@@H](CO)C(=O)N[C@@H](Cc2c[nH]c3ccccc23)C(=O)N1C [Example 1012] ({CH2CO}-[Tyrψ(CN4)Ala]NPHL[Sar]WSW[NMeNle][NMeNle]RCG-NH2; thioether N-13)	0.03 µM

same assay, conditions: inhibition of PD-1-Ig binding to PD-L1-TVMV-His; range classes

Structure (SMILES)	IC50
CCCC[C@H]1C(=O)N(C)CC(=O)N[C@@H](CC(=O)O)C(=O)N[C@@H](C(C)C)C(=O)N(C)[C@@H](Cc2ccccc2)C(=O)N[C@@H](Cc2ccc(O)cc2)C(=O)N(C)CC(=O)N[C@@H](Cc2c[nH]c3ccccc23)C(=O)N[C@@H](Cc2ccc(O)cc2)C(=O)N[C@@H](CC(C)C)C(=O)N[C@H](C(=O)NCC(N)=O)CSCC(=O)NC(Cc2ccccc2)c2nnnn2[C@@H](Cc2ccccc2)C(=O)N1C (single isomer, unassigned) [Example 3001]	0.1 to 10 µM
CCCC[C@H]1C(=O)NC(CCCNC(=N)N)C(=O)N[C@H](C(=O)NCC(N)=O)CSCC(=O)N[C@@H](Cc2ccc(O)cc2)C(=O)N(C)[C@@H](C)C(=O)N[C@@H](CC(N)=O)C(=O)N2CCC[C@H]2C(=O)N[C@@H](Cc2cnc[nH]2)C(=O)N[C@@H](CC(C)C)C(=O)N2CCC[C@H]2C(=O)N[C@@H](Cc2c[nH]c3ccccc23)C(=O)N[C@@H](CO)C(=O)N[C@@H](Cc2cccc3ccccc23)c2nnnn2[C@@H](CCCC)C(=O)N1C (some centres unmarked) [Example 1006]	0.1 to 10 µM
CCCC[C@H]1C(=O)N[C@@H](CCCN)C(=O)NC(C(=O)NCC(N)=O)CSCC(=O)N[C@@H](Cc2ccc(O)cc2)C(=O)N2CCOC[C@H]2C(=O)N[C@@H](CC(N)=O)C(=O)N2CCC[C@H]2C(=O)N[C@@H](CN)C(=O)N[C@@H](CC(C)C)C(=O)N2C[C@H](O)C[C@H]2C(=O)N[C@@H](Cc2c[nH]c3ccccc23)C(=O)N[C@@H](CO)C(=O)N[C@@H](Cc2c[nH]c3ccccc23)c2nnnn2[C@@H](CCCC)C(=O)N1C (stereo partly drawn) [Example 1054] ({CH2CO}-Y[Morpholine(3S-CO)]NP[Dap]L[Hyp]WS[X1][NMeNle][Orn][ξC]G-NH2; thioether N-13)	0.1 to 10 µM
CCCC[C@H]1C(=O)N[C@@H](CN)C(=O)N[C@H](C(=O)NCC(N)=O)CSCC(=O)N[C@@H](Cc2ccc(O)cc2)C(=O)N2CCCC[C@H]2C(=O)N[C@@H](CC(N)=O)C(=O)N2CCC[C@H]2C(=O)N[C@@H](CN)C(=O)N[C@@H](CCC(=O)O)C(=O)N2C[C@H](O)C[C@H]2C(=O)N[C@@H](Cc2c[nH]c3ccccc23)C(=O)N[C@@H](CCN)C(=O)N[C@@H](Cc2cccc3ccccc23)c2nnnn2[C@@H](CCCC)C(=O)N1C [Example 1059]	0.01 to 0.099 µM
CCCC[C@H]1C(=O)N[C@@H](C)C(=O)N[C@H](C(=O)NCC(N)=O)CSCC(=O)N[C@@H](Cc2ccc(O)cc2)C(=O)N(C)[C@@H](C)C(=O)N[C@@H](CC(N)=O)C(=O)N2CCC[C@H]2C(=O)N[C@@H](CN)C(=O)N[C@@H](CC(C)C)C(=O)N2C[C@H](O)C[C@H]2C(=O)N[C@@H](Cc2c[nH]c3ccccc23)C(=O)N[C@@H](CO)C(=O)N[C@@H](Cc2c[nH]c3ccccc23)c2nnnn2[C@@H](CCCC)C(=O)N1C [Example 1100] ({CH2CO}-Y[NMeA]NP[Dap]L[Hyp]WS[X1][NMeNle]ACG-NH2; thioether N-13)	0.1 to 10 µM
CCCC[C@H]1C(=O)N[C@@H](CCC(=O)O)C(=O)N[C@H](C(=O)NCC(N)=O)CSCC(=O)N[C@@H](Cc2ccc(O)cc2)C(=O)N(C)[C@@H](C)C(=O)N[C@@H](CC(=O)O)C(=O)N2CCC[C@H]2C(=O)N[C@@H](Cc2cnc[nH]2)C(=O)N[C@@H](CCC(N)=O)C(=O)N2C[C@H](O)C[C@H]2C(=O)N[C@@H](Cc2c[nH]c3ccccc23)C(=O)N[C@@H](CO)C(=O)N[C@@H](Cc2cccc3ccccc23)c2nnnn2[C@@H](CCCC)C(=O)N1C [Example 1104]	0.01 to 0.099 µM
CCCC[C@H]1C(=O)N(C)CC(=O)N[C@@H](CC(=O)O)C(=O)N[C@@H](C(C)C)C(=O)N(C)[C@@H](Cc2ccccc2)C(=O)N[C@@H](Cc2ccc(O)cc2)C(=O)N(C)CC(=O)N[C@@H](Cc2c[nH]c3ccccc23)C(=O)N[C@@H](Cc2ccc(O)cc2)C(=O)N[C@@H](CC(C)C)C(=O)N[C@H](C(=O)NCC(N)=O)CSCC(=O)NC(Cc2ccccc2)c2nnnn2[C@@H](Cc2ccccc2)C(=O)N1C (single isomer, unassigned) [Example 3002]	0.1 to 10 µM
CCCC[C@H]1C(=O)N[C@@H](C)C(=O)N[C@H](C(=O)NCC(N)=O)CSCC(=O)N[C@@H](Cc2ccc(O)cc2)C(=O)N(C)[C@@H](C)C(=O)N[C@@H](CC(=O)O)C(=O)N2CCC[C@H]2C(=O)N[C@@H](Cc2cnc[nH]2)C(=O)N[C@@H](CCC(N)=O)C(=O)N2C[C@H](O)C[C@H]2C(=O)N[C@@H](Cc2c[nH]c3ccccc23)C(=O)N[C@@H](CO)C(=O)N[C@@H](Cc2cccc3ccccc23)c2nnnn2[C@@H](CCCC)C(=O)N1C [Example 1103]	0.1 to 10 µM
CCCC[C@H]1C(=O)N(C)[C@@H](CCCC)C(=O)N[C@@H](CCC(=O)O)C(=O)N[C@H](C(=O)NCC(N)=O)CSCC(=O)N[C@@H](Cc2ccc(O)cc2)c2nnnn2[C@@H](C)C(=O)N[C@@H](CC(=O)O)C(=O)N2CCC[C@H]2C(=O)N[C@@H](CN)C(=O)N[C@@H](CCC(=O)O)C(=O)N2C[C@H](O)C[C@H]2C(=O)N[C@@H](Cc2c[nH]c3ccccc23)C(=O)N[C@@H](CCN)C(=O)N[C@@H](Cc2c[nH]c3ccccc23)C(=O)N1C [Example 1056] ({CH2CO}-[Tyrψ(CN4)Ala]DP[Dap]E[Hyp]W[Dab]W[NMeNle][NMeNle]ECG-NH2; thioether N-13)	0.1 to 10 µM
CCCC[C@H]1C(=O)N(C)[C@@H](CCCC)C(=O)N[C@@H](CCC(=O)O)C(=O)N[C@H](C(=O)NCC(N)=O)CSCC(=O)N[C@@H](Cc2ccc(O)cc2)c2nnnn2[C@@H](C)C(=O)N[C@@H](CC(=O)O)C(=O)N2CCC[C@H]2C(=O)N[C@@H](Cc2c[nH]cn2)C(=O)N[C@@H](CCC(N)=O)C(=O)N2C[C@H](O)C[C@H]2C(=O)N[C@@H](Cc2c[nH]c3ccccc23)C(=O)N[C@@H](CO)C(=O)N[C@@H](Cc2csc3ccccc23)C(=O)N1C [Example 1106] ({CH2CO}-[Tyrψ(CN4)Ala]DPHQ[Hyp]WS[Bta][NMeNle][NMeNle]ECG-NH2; thioether N-13)	0.1 to 10 µM
CCCC[C@H]1C(=O)N(C)[C@@H](CCCC)C(=O)N[C@@H](C)C(=O)N[C@H](C(=O)NCC(N)=O)CSCC(=O)N[C@@H](Cc2ccc(O)cc2)c2nnnn2[C@@H](C)C(=O)N[C@@H](CC(=O)O)C(=O)N2CCC[C@H]2C(=O)N[C@@H](Cc2c[nH]cn2)C(=O)N[C@@H](CCC(N)=O)C(=O)N2C[C@H](O)C[C@H]2C(=O)N[C@@H](Cc2c[nH]c3ccccc23)C(=O)N[C@@H](CO)C(=O)N[C@@H](Cc2csc3ccccc23)C(=O)N1C [Example 1105] ({CH2CO}-[Tyrψ(CN4)Ala]DPHQ[Hyp]WS[Bta][NMeNle][NMeNle]ACG-NH2; thioether N-13)	0.1 to 10 µM
CCCC[C@H]1C(=O)N(C)[C@@H](CCCC)C(=O)N[C@@H](CCCNC(=N)N)C(=O)N[C@H](C(=O)NCC(N)=O)CSCC(=O)N[C@@H](Cc2ccccc2)c2nnnn2[C@@H](C)C(=O)N[C@@H](CC(N)=O)C(=O)N2CCC[C@H]2C(=O)N[C@@H](Cc2cnc[nH]2)C(=O)N[C@@H](CC(C)C)C(=O)N2CCC[C@H]2C(=O)N[C@@H](Cc2c[nH]c3ccccc23)C(=O)N[C@@H](CO)C(=O)N[C@@H](Cc2csc3ccccc23)C(=O)N1C [Example 1010] ({CH2CO}-[X5]NPHLPWS[Bta][NMeNle][NMeNle]RCG-NH2; thioether N-13)	0.1 to 10 µM
CCCC[C@H]1C(=O)N[C@@H](C)C(=O)N[C@H](C(=O)NCC(N)=O)CSCC(=O)N[C@@H](Cc2ccc(O)cc2)C(=O)N[C@H](C)C(=O)N[C@@H](CC(=O)O)C(=O)N2CCC[C@H]2C(=O)N[C@@H](Cc2cnc[nH]2)C(=O)N[C@@H](CCC(N)=O)C(=O)N2C[C@H](O)C[C@H]2C(=O)N[C@@H](Cc2c[nH]c3ccccc23)C(=O)N[C@@H](CO)C(=O)N[C@@H](Cc2cccc3ccccc23)c2nnnn2[C@@H](CCCC)C(=O)N1C [Example 1113]	0.1 to 10 µM
